This is an account of results in a melting point compilation (Tetko et al.; mined from patent text by program, amines drawn as free bases though some values may be those of a salt).

`CCc1cccc(C)c1CNc1cc(Br)cc2c1nc(COC)n2C` registered a melting point of 110 to 112 °C.

For `Nc1cc(-c2ccccc2)cc2ccccc12`, the melting point came out at 103 °C.

`CCOC(=O)CNc1ccc(Cl)c(Cl)c1`: the melting point fell in the range of 103 to 104 °C.

In turn, `O=C(C#Cc1ccc(CCN2CCCC2)cc1)Nc1ccc(Cl)cc1` gave a melting point of 153 to 154 °C.

The compound `O=C(Nc1ccccc1)Nc1ccnc(C(F)(F)F)c1` had a melting point of 169 to 171 °C.

On to `c1ccc(CC[C@H]2CNCCN2)cc1`, for which the melting point fell in the range of 114 to 115 °C.

With `CCCCCCCNC(=O)Nc1ccc(NC(C)=O)cc1C(=O)NC1CCN(C(c2ccccc2)c2ccccc2)CC1`, the melting point was in the range of 113 to 115 °C.

`CCCCNCCNC(=O)Nc1ccccc1C(=O)NCC1CCN(C(c2ccccc2)c2ccccc2)CC1`: the melting point is 148 to 150 °C.

Consider `O=C1C=C(c2cccn2Cc2ccccc2)C(=O)c2ccccc21`, for which the melting point was 99 °C.

Regarding `CN(C)CCC(c1ccncc1)S(=O)(=O)c1ccc(Cl)cc1` (stereo unspecified), the melting point is 91 to 92 °C.

Turning to `CCC1(c2ccccc2)Cc2cc(OCC(=O)O)c(Cl)c(Cl)c2C1=O` (stereo unspecified), the melting point was 187 to 189 °C.

As to `COc1ccccc1C(=O)CN1C(=O)C(NC(=O)Nc2cccc(-c3nnn[nH]3)c2)N=C(c2ccccc2F)c2cccc(C)c21` (stereo unspecified), the melting point lay within 194 to 195 °C.

`CC(C)CC1NCC(C)(C)NC1=O` (stereo unspecified) displayed a melting point of 140 to 144 °C.

`COc1cc2c(c(Cl)c1Cl)C(=O)C(C)(c1ccc(Br)cc1)C2` (stereo unspecified) displayed a melting point of 200 to 203 °C.

In turn, `CCCc1c(OCCCOc2ccccc2)ccc2c1OC(CCC(=O)OC)(CCC(=O)OC)CC2=O` displayed a melting point of 100 °C.

Consider `CC(C)Cc1ccc(C(C)C(=O)ON(C(N)=O)C(C)c2cc3ccccc3s2)cc1` (stereo unspecified), for which the melting point is 123 to 128 °C.

Consider `O=C(Nc1c[nH]nc1C(=O)NCc1ccco1)c1ccccn1`, for which the melting point lay in the range of 198 to 199 °C.

Compound `O=C(O)c1cc(Cl)c(Cl)c(S(=O)(=O)Cl)c1` came in with a melting point of 203 °C.

For the compound `Cc1c(-c2ccccc2)n(-c2ccccc2)c(-c2ccc(C#N)cc2)cc1=O`, the melting point lay in the range of 229 to 233 °C.

Take `COc1cc2oc(=O)c3c(c2c(OC)c1OC)CCN(CC(C)=O)C3`: the melting point is 114 to 116 °C.

As to `CN(C)S(=O)(=O)c1ccc(-c2ccc(N)cc2)cc1`, the melting point was 178 to 180 °C.

In turn, `O=c1[nH]cnn1-c1ccc(C(F)(F)F)cc1` came in with a melting point of 221 °C.

Consider `Clc1ccc2[nH]c3c4ccccc4nc-3c(Cl)c2c1`, for which the melting point lay within 281 to 282 °C.

The compound `Fc1ccc(Nc2ncnc3ccc(-c4cccs4)cc23)cc1Cl` showed a melting point of 205 to 208 °C.

In turn, `NC(=O)c1c(N)n(C2CCCC2)c2nc(Nc3ccc(N4CCOCC4)cc3)ncc2c1=O` returned a melting point of 265 °C.

As for `O=C(O)c1ccc2cn(C3CCCC3)nc2c1`, the melting point lay within 190 to 193 °C.

On to `O=C(CCCN1CCCCC1)c1ccc2[nH]c3ccc(C(=O)CCCN4CCCCC4)cc3c2c1`, for which the melting point is 171 to 173 °C.

`CC1(C)C(C=CC(=O)OC2CC2)C1C(=O)OC(C#N)c1cccc(Oc2ccccc2)c1` (stereo unspecified) displayed a melting point of 62 °C.

`O=C1c2cc(OCCCl)ccc2-c2ccc(OCCCl)cc21`: the melting point was 135 to 139 °C.

For the compound `CCOC(=O)c1ccc(NCCOc2ccc(F)cc2)cc1`, the melting point was 122 to 123 °C.

On to `CC(C)Cn1cnc2c(N)nc3ccc(CCCCc4ccccc4)cc3c21`, for which the melting point lay within 176 to 177 °C.

The compound `CCCCC(=O)c1cc2n(c1)CCc1ccccc1C2=O` yielded a melting point of 135 to 136 °C.

As for `c1ccc2c(c1)Cn1cccc1CN2`, the melting point is 145 to 148 °C.

`CCCCc1cc(C(=O)Nc2nnn[nH]2)nc(-c2ccc(N)cc2)c1` had a melting point of over 300 °C.

The compound `CCOC(=O)CNC(=O)Nc1c(-c2ccccc2OC)c2ccccc2c(=O)n1C` showed a melting point of 128 to 130 °C.

The compound `O=S(=O)(NCCCCCCCCCCCCBr)c1ccc(Cl)cc1` gave a melting point of 70 to 73 °C.

With `CC(C)(C)OC(=O)C=Cc1cncc2ccccc12`, the melting point was 81 to 83 °C.

`CC(=O)Nc1c(C)c(C)c2c(c1C)CC(C)(C)O2` had a melting point of 190 °C.

In turn, `Cc1nnc(-c2ccccc2OCC2CO2)o1` (stereo unspecified) came in with a melting point of 38 to 40 °C.

On to `O=C(NCc1ccc(Cl)cc1)c1cnc2cc(C(F)(F)F)c(SCc3ccccc3)cc2c1O`, for which the melting point is 185 to 188 °C.

In turn, `CS(=O)(=O)c1ccc(-c2oc(C(=O)O)cc(=O)c2Oc2ccc(Cl)cc2)cc1` yielded a melting point of 263 °C.

In turn, `CCCCCCCCCCCCC[C@@H](CC(N)=O)OC(=O)[C@H](CCCC(=O)OCc1ccccc1)NC(=O)c1cnc2ccccc2c1` gave a melting point of 85 to 87 °C.

With `Cc1c(N2CCc3c(-c4ccccc4)cccc32)nc2ccc(F)cc2c1C(=O)O`, the melting point is 157 to 159 °C.

The compound `C=CCOc1ccc(C[C@H](N)C(=O)NC(=O)OC(C)(C)C)cc1` gave a melting point of 145 °C.

As for `O=S(=O)(NCCc1cccnc1)c1ccc(Cl)cc1`, the melting point was in the range of 143 to 145 °C.

The compound `Cc1c(C)c(N(C)C(=O)CC(C)(C)C)c(C)c2c1OCC2c1ccc(C(C)C)cc1` (stereo unspecified) gave a melting point of 80 to 82 °C.

Consider `CN1C(=O)c2c(-c3ccccc3)noc2CC1c1ccccc1` (stereo unspecified), for which the melting point was in the range of 108 to 111 °C.

On to `CN1CCC(c2c[nH]c3ccc([N+](=O)[O-])cc23)C(F)C1` (stereo unspecified), for which the melting point fell in the range of 105 to 107 °C.

`O=C1Oc2ccc3ccccc3c2CC1C(=O)c1cccc(C(F)(F)F)c1` (stereo unspecified) showed a melting point of 192 to 193 °C.

On to `CCCOc1ccc(-c2c(C)c(=O)cc(-c3ccccc3)n2-c2ccccc2)cc1`, for which the melting point was 165 to 168 °C.

`CCc1cccc2c(/C=C(\C)C(=O)O)cc(OC)c(OCOC)c12` registered a melting point of 127 to 128 °C.

`Nc1ccc(C(=O)NC2CCN(CCCn3cnc4c(N)ncnc43)CC2)cc1` had a melting point of 247 to 248 °C.

In turn, `N#Cc1ccc2c3c(cc([N+](=O)[O-])c2c1)NCC3CCl` (stereo unspecified) displayed a melting point of 237 to 238 °C.

Compound `COC1C(O)C(CO)OC1n1cc(C)c(=O)[nH]c1=O` (stereo unspecified) came in with a melting point of 192 to 193 °C.

Compound `N#Cc1cc(C(=O)CCl)cs1` gave a melting point of 94 to 98 °C.

The compound `O=C(NNc1nc(-c2ccccc2)c2cc(Cl)ccc2n1)C(F)(F)F` came in with a melting point of 207 to 208 °C.

For the compound `COc1ccc(C2=NN(c3ccc(C(=O)Nc4ccc(C5=NNC(=O)CC5C)cc4)cc3)C(=O)C3CC=CCC23)cc1OC` (stereo unspecified), the melting point lay in the range of 249 to 250 °C.

Regarding `CC(C)C(=O)CCC(C)C1CCC2C3CC=C4CC(O)CCC4(C)C3CCC12C` (stereo unspecified), the melting point lay within 135 to 136 °C.

With `COc1ccc(Cc2nc3c(N)nc4ccccc4c3n2CCCCNS(C)(=O)=O)cc1`, the melting point fell in the range of 78.1 to 79.5 °C.

With `Cc1cn(-c2nccc3ccccc23)cc1C(=O)O`, the melting point is 245 °C.

The compound `CCc1c(OC)c(Cl)cc(C(N)=O)c1OC` came in with a melting point of 83 to 84 °C.

Compound `CC1(C)Nc2nc(Cl)ccc2NC1=O` showed a melting point of 229 °C.

On to `CC=CCSc1cc(C(=O)O)cc(S(N)(=O)=O)c1-c1ccccc1`, for which the melting point fell in the range of 89 to 91 °C.

`COc1c(F)c(C)c(F)c(OC)c1CO` had a melting point of 80 to 81 °C.

In the case of `O=C1CNC(c2cccc(Cl)c2)=NN1`, the melting point was 228 to 230 °C.

Compound `CC(C)OC(=N)c1sc2ccccc2c1O` returned a melting point of 208 °C.

For `CCOCCC(=O)OCC(=O)C1(O)CCC2C3CC(C)C4=CC(=O)C=CC4(C)C3C(O)CC21C` (stereo unspecified), the melting point turned out to be 186 °C.

For the compound `O=[N+]([O-])c1cc(C(F)F)cc2nc(C(F)(F)F)[nH]c12`, the melting point was 132 to 134 °C.

`COc1cc(OC)c2c(C)c(CCCl)c(=O)oc2c1` gave a melting point of 129 to 130 °C.

`Cn1cc(C(O)(c2ccc3c(cnn3C(=O)c3ccccc3)c2)C(F)(F)F)c2ccccc21` (stereo unspecified) yielded a melting point of 102 to 103 °C.

For `CCCN(CCC)C(=O)Nc1nn(Cc2ccccc2)cc1C(=O)OCC`, the melting point was in the range of 114 to 115 °C.

In the case of `CCCc1[nH]c(C(=O)OCC)c(C)c1CCC(=O)OCC`, the melting point lay in the range of 61.5 to 63.5 °C.

With `O=C1N(Cc2cc3ccccc3o2)c2ccccc2C12COc1cc3c(cc12)OCO3` (stereo unspecified), the melting point fell in the range of 167 to 168 °C.

With `CCOC(=O)Cc1cccc2c(-c3ccccc3)onc12`, the melting point is 97 to 98 °C.

For the compound `Cc1nnc2n1-c1sc(CCc3ccc(CC(C)C)cc3)cc1C(c1ccccc1Cl)=NC2c1ccccc1` (stereo unspecified), the melting point is 170 to 172 °C.

As to `Cc1ccc(C)c(-c2ccc(C#N)c(C)c2)c1`, the melting point was in the range of 96 to 97 °C.

Consider `Cn1c(-c2ccccc2F)n[nH]c1=S`, for which the melting point is 137 to 139 °C.

Compound `CC(=O)SCSc1ncn(C(c2ccccc2)(c2ccccc2)c2ccccc2)n1` had a melting point of 124 to 125 °C.

`Nc1ncnc2c1ncn2CCCN1CCC(NC(=O)c2ccccc2)CC1`: the melting point lay within 213 to 214 °C.

Compound `CCc1ccc(-c2ccc(CCc3ccc(C(F)(F)F)cc3)cc2)cc1` yielded a melting point of 128 °C.

In the case of `CN(C)CC(=O)NN=Cc1c(-c2ccccc2)nn2ccccc12`, the melting point lay within 172 to 173 °C.

`FC(F)(F)Sc1c(-c2ccc(Cl)cc2)[nH]c(Br)c1Br`: the melting point lay in the range of 107 to 113 °C.

For `O=S(=O)(Nc1cccc(F)c1)c1cc(S(=O)(=O)Nc2cccc(F)c2)c2cc(O)ccc2c1`, the melting point is 110 to 112 °C.

In turn, `O=C(Nc1n[nH]c2c(F)cccc12)c1ccccc1` came in with a melting point of 232 °C.

Regarding `CCCCN(CCCC)Cc1nc(-c2ncn3c2CN(C)C(=O)c2c(Cl)cccc2-3)no1`, the melting point is 140 to 142 °C.

Compound `CC(C)(C)OC(=O)NCCCc1ccccc1OCc1ccccc1` came in with a melting point of 50 to 52 °C.

On to `CCCCc1ncc(C=O)n1Cc1ccc(C(=O)OC)c(Cl)c1Cl`, for which the melting point is 94 to 96 °C.

The compound `O=C(O)c1ccc2c(c1)S(=O)(=O)c1ccccc1C=C2` yielded a melting point of 268 to 270 °C.

On to `CC(C)(C)CN1C(=O)C2CC2(c2ccc(N)cc2)C1=O` (stereo unspecified), for which the melting point was 118 to 119 °C.

In turn, `CCCCCCCCCc1c(C(=O)O)sc2cc(Br)ccc12` registered a melting point of 126 to 127 °C.

Compound `COc1ccc(S(=O)(=O)Nc2cccnc2Nc2ccc(OC)c(OC)c2)cc1` displayed a melting point of 126 to 127 °C.

One may read the melting point as the temperature of the solid-liquid transition.
